From BigSolDB 2.1

CCC(C)n1ncn(-c2ccc(N3CCN(c4ccc(OC[C@H]5CO[C@](Cn6cncn6)(c6ccc(Cl)cc6Cl)O5)cc4)CC3)cc2)c1=O (mixture of isomers)
solubility (mole fraction)
Details | in chloroform | in dichloromethane | in ethanol | in methanol | in n-butanol | in n-propanol
288.15 K | 0.0459 | 0.0287 | 1.07e-05 | 2.35e-05 | 1.43e-05 | 1.24e-05
293.15 K | 0.048 | 0.0306 | 1.43e-05 | 2.97e-05 | 1.82e-05 | 1.61e-05
298.15 K | 0.0503 | 0.0326 | 1.89e-05 | 3.78e-05 | 2.28e-05 | 2.09e-05
303.15 K | 0.0525 | 0.0347 | 2.44e-05 | 4.71e-05 | 2.87e-05 | 2.68e-05
308.15 K | 0.0548 | 0.0369 | 3.18e-05 | 5.88e-05 | 3.52e-05 | 3.36e-05
